Each structure is given as a SMILES string. pIC50: −log10 of the molar value.

As a reminder, the pIC50 is −log10 of the IC50, conventionally taken in molar units. Low readings indicate a high IC50, high ones a low IC50.

This experiment addresses ROCK2 (Homo sapiens (Human), UniProt O75116). The experiment is described as follows: Rho Kinase Inhibition Assay (IMAP fluorescence polarization). As to conditions: isolated enzyme, 10 μM ATP, 60 minutes at room temperature. In kind it is biochemical. As to the method:
Following the preincubation, 10 μM ATP was added to initiate the reaction. After 60 minutes at room temperature, Molecular Devices IMAP™ binding solution was added to bind phosphorylated substrate. After 30 minutes of incubation in the presence of the IMAP™ beads the fluorescence polarization was read and the ratio was reported as mP. IC50 results were calculated using the Prism software from Graphpad.
See Tian et al., Arch. Ophthalmol. […] Ophthalmol. Vis. […] Ophthalmol. […] Cytoskel. […] Ophthalmol. Vis. […] Ophthalmol. Vis.
In general terms: In fluorescence polarisation assays a small probe gives low polarisation when free and higher when bound to something large.

ROCK2, sequence (O75116 11-552): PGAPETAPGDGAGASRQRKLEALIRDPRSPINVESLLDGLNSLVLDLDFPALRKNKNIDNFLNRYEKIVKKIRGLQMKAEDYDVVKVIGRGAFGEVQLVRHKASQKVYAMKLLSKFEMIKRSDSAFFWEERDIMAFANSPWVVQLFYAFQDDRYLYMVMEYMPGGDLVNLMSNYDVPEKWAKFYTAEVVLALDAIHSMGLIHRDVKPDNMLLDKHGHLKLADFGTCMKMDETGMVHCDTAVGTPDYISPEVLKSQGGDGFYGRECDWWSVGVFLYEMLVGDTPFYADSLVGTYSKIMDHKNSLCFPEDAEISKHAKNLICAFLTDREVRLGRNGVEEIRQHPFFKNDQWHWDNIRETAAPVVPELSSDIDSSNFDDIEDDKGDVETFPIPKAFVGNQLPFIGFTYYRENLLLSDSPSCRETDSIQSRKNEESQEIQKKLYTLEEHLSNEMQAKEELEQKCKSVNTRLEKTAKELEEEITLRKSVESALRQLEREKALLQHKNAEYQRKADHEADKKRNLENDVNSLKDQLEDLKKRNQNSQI

With `Brc1ccc(Br)c(CN2CCCC(Nc3ccc4[nH]ncc4c3)C2)c1` (stereo not shown) [Compound 1.071, N-(1-(2,5-dibromobenzyl)piperidin-3-yl)-1H-indazol-5-amine], the pIC50 was 5.25.
The figure for `FC(F)(F)c1cccc(CN2CCC(Nc3ccc4[nH]ncc4c3)C2)c1` (stereo not shown) [Compound 1.064, N-(1-(3-(trifluoromethyl)benzyl)pyrrolidin-3-yl)-1H-indazol-5-amine] is 6.78; for `O=C(O)COc1cccc(CN2CCCC(Nc3ccc4[nH]ncc4c3)C2)c1` (stereo not shown) [Compound 1.086, 2-(3-((3-(1H-indazol-5-ylamino)piperidin-1-yl)methyl)phenoxy)acetic acid] it is 6.51.
`Cc1n[nH]c2ccc(NC3CCCN(Cc4ccccc4)C3)cc12` (stereo not shown) [Compound 1.049, N-(1-benzylpiperidin-3-yl)-3-methyl-1H-indazol-5-amine] showed a pIC50 of 6.22.
With `CS(=O)(=O)Nc1cccc(CN2CCC[C@@H](Nc3ccc4[nH]ncc4c3)C2)c1` [Compound 1.093, (R)-N-(3-((3-(1H-indazol-5-ylamino)piperidin-1-yl)methyl)phenyl)methanesulfonamide] the figure was 7.00.
The figure for `c1ccc(-c2ccc(CN3CCCC(Nc4ccc5[nH]ncc5c4)C3)cc2)cc1` (stereo not shown) [Compound 1.009, N-(1-(biphenyl-4-ylmethyl)piperidin-3-yl)-1H-indazol-5-amine] is 5.79; for `O=C(O)COc1cccc(CN2CCC[C@@H](Nc3ccc4[nH]ncc4c3)C2)c1` [Compound 1.125, (R)-2-(3-((3-(1H-indazol-5-ylamino)piperidin-1-yl)methyl)phenoxy)acetic acid] it is 6.06.
The figure for `NC(=O)COc1cccc(CN2CC[C@@H](Nc3cccc4cnccc34)C2)c1` [Compound 2.040, (R)-2-(3-((3-(isoquinolin-5-ylamino)pyrrolidin-1-yl)methyl)phenoxy)acetamide] is 6.56.
Regarding `c1cc(N2CCCC2)ccc1CN1CCCC(Nc2ccc3[nH]ncc3c2)C1` (stereo not shown) [Compound 1.011, N-(1-(4-(pyrrolidin-1-yl)benzyl)piperidin-3-yl)-1H-indazol-5-amine], the pIC50 is 4.91.
With `NC(=O)Cn1ccc2ccc(CN3CCCC(Nc4ccc5[nH]ncc5c4)C3)cc21` (stereo not shown) [Compound 1.099, 2-(6-((3-(1H-indazol-5-ylamino)piperidin-1-yl)methyl)-1H-indol-1-yl)acetamide] the figure was 7.59; with `CCS(=O)(=O)Nc1cccc(CN2CCC[C@H](Nc3ccc4[nH]ncc4c3)C2)c1` [Compound 1.124, (S)-N-(3-((3-(1H-indazol-5-ylamino)piperidin-1-yl)methyl)phenyl)ethanesulfonamide], 7.23; with `NC(=O)Cn1ccc2ccc(CN3CCC[C@@H](Nc4ccc5[nH]ncc5c4)C3)cc21` [Compound 1.106, (R)-2-(6-((3-(1H-indazol-5-ylamino)piperidin-1-yl)methyl)-1H-indol-1-yl)acetamide], 7.16.
With `c1cn(-c2ccc(CN3CCCC(Nc4ccc5[nH]ncc5c4)C3)cc2)cn1` (stereo not shown) [Compound 1.010] the figure was 5.55; with `C#Cc1ccc(CN2CCC[C@H](Nc3ccc4[nH]ncc4c3)C2)cc1` [Compound 1.077, (S)-N-(1-(4-ethynylbenzyl)piperidin-3-yl)-1H-indazol-5-amine], 7.27.
`C[C@@H](O)COc1cccc(CN2CCC[C@H](Nc3ccc4[nH]ncc4c3)C2)c1` [Compound 1.118, (R)-1-(3-(((S)-3-(1H-indazol-5-ylamino)piperidin-1-yl)methyl)phenoxy)propan-2-ol] had a pIC50 of 5.85.
The figure for `CS(=O)(=O)Nc1cccc(CN2CC[C@@H](Nc3cccc4cnccc34)C2)c1` [Compound 2.038, (R)-N-(3-((3-(isoquinolin-5-ylamino)pyrrolidin-1-yl)methyl)phenyl)methanesulfonamide] is 6.95; for `C#Cc1ccc(CN2CCCC(Nc3ccc4[nH]ncc4c3)C2)cc1` (stereo not shown) [Compound 1.034, N-(1-(4-ethynylbenzyl)piperidin-3-yl)-1H-indazol-5-amine] it is 7.16; for `CS(=O)(=O)Cc1cccc(CN2CCCC(Nc3ccc4[nH]ncc4c3)C2)c1` (stereo not shown) [Compound 1.041, N-(1-(3-(methylsulfonylmethyl)benzyl)piperidin-3-yl)-1H-indazol-5-amine] it is 6.86.
With `Nc1cc(CN2CCCC(Nc3ccc4[nH]ncc4c3)C2)ccc1Cl` (stereo not shown) [Compound 1.089, N-(1-(3-amino-4-chlorobenzyl)piperidin-3-yl)-1H-indazol-5-amine] the figure was 7.53.
With `Oc1cc(CN2CCCC(Nc3ccc4[nH]ncc4c3)C2)ccc1I` (stereo not shown) [Compound 1.068, 5-((3-(1H-indazol-5-ylamino)piperidin-1-yl)methyl)-2-iodophenol] the figure was 6.18.
Turning to `FC(F)(F)c1cccc(CN2CCCC(Nc3cccc4cnccc34)C2)c1` (stereo not shown) [Compound 2.015, N-(1-(3-(trifluoromethyl)benzyl)piperidin-3-yl)isoquinolin-5-amine], the pIC50 was 5.38.
`c1cc(SC2CC2)ccc1CN1CCCC(Nc2ccc3[nH]ncc3c2)C1` (stereo not shown) [Compound 1.026, N-(1-(4-(cyclopropylthio)benzyl)piperidin-3-yl)-1H-indazol-5-amine] gave a pIC50 of 5.67.
In the case of `CS(=O)(=O)Nc1cccc(CN2CCC[C@@H](Nc3cccc4cnccc34)C2)c1` [Compound 2.033, (R)-N-(3-((3-(isoquinolin-5-ylamino)piperidin-1-yl)methyl)phenyl)methanesulfonamide], the negative logarithm of the IC50 (pIC50) was 5.51.
The figure for `c1cc(NC2CCCN(Cc3ccc(SC4CC4)cc3)C2)c2ccncc2c1` (stereo not shown) [Compound 2.012, N-(1-(4-(cyclopropylthio)benzyl)piperidin-3-yl)isoquinolin-5-amine] is 4.83; for `CS(=O)(=O)Nc1cccc(CN2CCC(Nc3ccc4[nH]ncc4c3)C2)c1` (stereo not shown) [Compound 1.087, N-(3-((3-(1H-indazol-5-ylamino)pyrrolidin-1-yl)methyl)phenyl)methanesulfonamide] it is 6.55.
With `CS(=O)(=O)c1cccc(CN2CCCC(Nc3ccc4[nH]ncc4c3)C2)c1` (stereo not shown) [Compound 1.048, N-(1-(3-(methylsulfonyl)benzyl)piperidin-3-yl)-1H-indazol-5-amine], the pIC50 is 6.14.
The figure for `c1cc(NC2CCCN(Cc3ccc(C4CC4)cc3)C2)c2ccncc2c1` (stereo not shown) [Compound 2.010, N-(1-(4-cyclopropylbenzyl)piperidin-3-yl)isoquinolin-5-amine] is 5.91; for `CC(=O)NCCOc1cccc(CN2CCCC(Nc3ccc4[nH]ncc4c3)C2)c1` (stereo not shown) [Compound 1.111, N-(2-(3-((3-(1H-indazol-5-ylamino)piperidin-1-yl)methyl)phenoxy)ethyl)acetamide] it is 6.23; for `OCCOc1cccc(CN2CC[C@@H](Nc3cccc4cnccc34)C2)c1` [Compound 2.039, (R)-2-(3-((3-(isoquinolin-5-ylamino)pyrrolidin-1-yl)methyl)phenoxy)ethanol] it is 7.00.
The figure for `Cc1cccc(CN2CCCC(Nc3ccc4[nH]ncc4c3)C2)c1` (stereo not shown) [Compound 1.066, N-(1-(3-methylbenzyl)piperidin-3-yl)-1H-indazol-5-amine] is 6.63; for `OCCOc1ccc(CN2CCCC(Nc3ccc4[nH]ncc4c3)C2)cc1` (stereo not shown) [Compound 1.018, 2-(4-((3-(1H-indazol-5-ylamino)piperidin-1-yl)methyl)phenoxy)ethanol] it is 5.62.

(Values after patent US8604218B2, “Cytoskeletal active rho kinase inhibitor compounds, composition and use” (Inspire Pharmaceuticals, Inc., priority 2006, dated 2013).)
